In PubChem BioAssay AID330 (DTP/NCI, 2004):
Several values for one entry are separate records, joined by “and”; a condition that tells them apart may be missing. Equal entries are not always repeated. Toxic doses and inconclusive results are not listed.

Test system: P388 leukemia ip, CD2F1 mice, survival T/C
Test: NCI In Vivo Anticancer Drug Screen. Data for tumor model P388 Leukemia (intraperitoneal) in CD2F1 (CDF1) mice
Settings: endpoint: median survival time, higher = longer survival
Method in brief: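 Mice carrying the transplanted tumor received test compound or vehicle. Survival was recorded in each group, and the value is the treated-group measurement divided by that of the vehicle-treated control group.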

[1] = dose: 60.0 mg/kg/injection, schedule: Q01DX005 (ip), vehicle: saline with Tween-80
[2] = dose: 120.0 mg/kg/injection, schedule: Q01DX005 (ip), vehicle: saline with Tween-80
[3] = dose: 240.0 mg/kg/injection, schedule: Q01DX005 (ip), vehicle: saline with Tween-80
[4] = dose: 60.0 mg/kg/injection, schedule: Q01DX005 (ip), vehicle: saline
[5] = dose: 120.0 mg/kg/injection, schedule: Q01DX005 (ip), vehicle: saline
[6] = dose: 240.0 mg/kg/injection, schedule: Q01DX005 (ip), vehicle: saline
[7] = dose: 50.0 mg/kg/injection, schedule: Q01DX005 (ip), vehicle: Klucel (hydroxypropylcellulose) (HPC)
[8] = dose: 100.0 mg/kg/injection, schedule: Q01DX005 (ip), vehicle: Klucel (hydroxypropylcellulose) (HPC)
[9] = dose: 200.0 mg/kg/injection, schedule: Q01DX005 (ip), vehicle: Klucel (hydroxypropylcellulose) (HPC)
[10] = dose: 50.0 mg/kg/injection, schedule: Q01DX009 (ip), vehicle: saline with Tween-80
[11] = dose: 100.0 mg/kg/injection, schedule: Q01DX009 (ip), vehicle: saline with Tween-80
[12] = dose: 200.0 mg/kg/injection, schedule: Q01DX009 (ip), vehicle: saline with Tween-80
[13] = dose: 50.0 mg/kg/injection, schedule: Q01DX005 (ip), vehicle: saline
[14] = dose: 100.0 mg/kg/injection, schedule: Q01DX005 (ip), vehicle: saline
[15] = dose: 100.0 mg/kg/injection, schedule: Q04DX003 (ip), vehicle: saline with Tween-80
[16] = dose: 200.0 mg/kg/injection, schedule: Q04DX003 (ip), vehicle: saline with Tween-80

For `CCN(CC)C(=O)NCCCCCCNC(=O)N(CC)CC`, the T/C (dose: 15.0 mg/kg/injection, schedule: Q01DX005 (ip), vehicle: saline with Tween-80) was 103 % of control, the T/C (dose: 30.0 mg/kg/injection, schedule: Q01DX005 (ip), vehicle: saline with Tween-80) was 98 % of control and 104 % of control and the T/C [1] was 98 % of control and 100 % of control and 94 % of control. The T/C [2] was 87 % of control.

With `Cc1cc(=O)c2c(=O)n(-c3ccccc3)[nH]c2[nH]1` the T/C [1] was 111 % of control, the T/C [2] was 109 % of control and the T/C [3] was 100 % of control.

With `O=C(c1cccc(C(=O)N2CCOCC2)n1)N1CCOCC1` the T/C [4] was 106 % of control, the T/C [5] was 100 % of control and the T/C [6] was 106 % of control.

For `C=C(C)C(=O)N(C)c1nc(N(C)C)nc(N(C)C)n1`, the T/C [7] was 101 % of control, the T/C [8] was 103 % of control and the T/C [9] was 103 % of control.

For `CNC(=S)N/N=C1/CCOC(C)/C1=N\NC(=S)NC` (stereo not drawn), the T/C (dose: 50.0 mg/kg/injection, schedule: Q01DX005 (ip), vehicle: saline with Tween-80) was 93 % of control, the T/C (dose: 100.0 mg/kg/injection, schedule: Q01DX005 (ip), vehicle: saline with Tween-80) was 95 % of control and the T/C (dose: 200.0 mg/kg/injection, schedule: Q01DX005 (ip), vehicle: saline with Tween-80) was 92 % of control.

With `Cc1nc(N)[nH]c(=O)c1CCc1ccccc1` the T/C [4] was 97 % of control, the T/C [5] was 99 % of control and the T/C [6] was 98 % of control.

`CNc1cc[nH]c(=O)c1NC(C)=O` was tested, and the T/C [4] was 100 % of control, the T/C [5] was 101 % of control and the T/C [6] was 106 % of control.

With `CCOC(=O)Nc1cc2c(c(N)n1)N=C(c1ccc(C)cc1)CN2` the T/C (dose: 1.0 mg/kg/injection, schedule: Q01DX005 (ip), vehicle: saline with Tween-80) was 109 % of control, the T/C (dose: 3.0 mg/kg/injection, schedule: Q01DX005 (ip), vehicle: saline with Tween-80) was 109 % of control and the T/C (dose: 6.0 mg/kg/injection, schedule: Q01DX005 (ip), vehicle: saline with Tween-80) was 121 % of control.

With `COc1ccc(CSC(=S)Nc2ccc(F)cc2F)cc1` the T/C (dose: 50.0 mg/kg/injection, schedule: Q01DX009 (ip), vehicle: Klucel (hydroxypropylcellulose) (HPC)) was 99 % of control, the T/C (dose: 50.0 mg/kg/injection, schedule: Q01DX009 (ip), vehicle: suspension in saline) was 106 % of control and the T/C (dose: 100.0 mg/kg/injection, schedule: Q01DX009 (ip), vehicle: Klucel (hydroxypropylcellulose) (HPC)) was 107 % of control. For the same molecule, the T/C (dose: 100.0 mg/kg/injection, schedule: Q01DX009 (ip), vehicle: suspension in saline) was 100 % of control, the T/C (dose: 200.0 mg/kg/injection, schedule: Q01DX009 (ip), vehicle: Klucel (hydroxypropylcellulose) (HPC)) was 112 % of control and the T/C (dose: 200.0 mg/kg/injection, schedule: Q01DX009 (ip), vehicle: suspension in saline) was 98 % of control.

For `COC(=O)c1c(-c2ccccc2)c(-c2ccccc2)n(-c2ccccc2)c1/N=C/N(C)C`, the T/C [10] was 97 % of control, the T/C [11] was 90 % of control and the T/C [12] was 90 % of control.

`CCOC(=O)C1=CC(C)(C)OC1=O` was tested, and the T/C [1] was 99 % of control and 106 % of control, the T/C [2] was 110 % of control and 118 % of control and the T/C [3] was 101 % of control and 124 % of control.

In the case of `CCCN(CCNc1cc(OC)cc2cccnc12)C(C)CC` (stereo not drawn), the T/C [13] was 107 % of control and the T/C [14] was 92 % of control.

In the case of `Cc1oc(NC(=O)C(=O)O)c(C#N)c1C`, the T/C [10] was 88 % of control, the T/C [11] was 102 % of control and the T/C [12] was 88 % of control.

For `Cc1ccc(S(=O)(=O)Nc2ccc3ncccc3c2)cc1`, the T/C [15] was 99 % of control and the T/C [16] was 98 % of control.

`COc1cc2c(/C=N/Nc3ccccc3[N+](=O)[O-])c(Cl)[nH]c2cc1C` was tested, and the T/C (dose: 50.0 mg/kg/injection, schedule: Q01DX001 (ip), vehicle: Klucel (hydroxypropylcellulose) (HPC)) was 107 % of control, the T/C (dose: 100.0 mg/kg/injection, schedule: Q01DX001 (ip), vehicle: Klucel (hydroxypropylcellulose) (HPC)) was 98 % of control and 87 % of control and the T/C (dose: 200.0 mg/kg/injection, schedule: Q01DX001 (ip), vehicle: Klucel (hydroxypropylcellulose) (HPC)) was 98 % of control and 87 % of control. The T/C (dose: 400.0 mg/kg/injection, schedule: Q01DX001 (ip), vehicle: Klucel (hydroxypropylcellulose) (HPC)) was 90 % of control.

With `COc1cc(C(=O)C2OC2c2ccc(Cl)cc2)c([N+](=O)[O-])cc1OC` (stereo not drawn) the T/C [7] was 93 % of control, the T/C [8] was 98 % of control and the T/C [9] was 96 % of control.

`CC1(C)N=C(N)N=C(N)N1c1cc(C(F)(F)F)cc(C(F)(F)F)c1` was tested, and the T/C (dose: 7.5 mg/kg/injection, schedule: Q01DX005 (ip), vehicle: Klucel (hydroxypropylcellulose) (HPC)) was 99 % of control, the T/C (dose: 15.0 mg/kg/injection, schedule: Q01DX005 (ip), vehicle: Klucel (hydroxypropylcellulose) (HPC)) was 94 % of control and the T/C (dose: 30.0 mg/kg/injection, schedule: Q01DX005 (ip), vehicle: Klucel (hydroxypropylcellulose) (HPC)) was 105 % of control.

In the case of `O=C1c2ccccc2C(=O)c2ncccc21`, the T/C [15] was 100 % of control, the T/C [16] was 99 % of control and the T/C (dose: 400.0 mg/kg/injection, schedule: Q04DX003 (ip), vehicle: saline with Tween-80) was 100 % of control.

For `CN=S(=O)(OCCCCOS(=O)(=NC)c1ccc(C)cc1)c1ccc(C)cc1` (stereo not drawn), the T/C (dose: 50.0 mg/kg/injection, schedule: Q04DX003 (ip), vehicle: saline with Tween-80) was 116 % of control.

In the case of `COc1cccc2c1C(=O)c1c(O)c3c(c(O)c1C2=O)CC(O)(C(C)=O)CC3OC1OC(C)C(O)C(N)C1O` (stereo not drawn), the T/C (dose: 3.13 mg/kg/injection, schedule: Q04DX003 (ip), vehicle: water) was 91 % of control, the T/C (dose: 6.25 mg/kg/injection, schedule: Q04DX003 (ip), vehicle: water) was 110 % of control and the T/C (dose: 12.5 mg/kg/injection, schedule: Q04DX003 (ip), vehicle: water) was 99 % of control. For the same molecule, the T/C (dose: 25.0 mg/kg/injection, schedule: Q04DX003 (ip), vehicle: water) was 100 % of control and the T/C (dose: 50.0 mg/kg/injection, schedule: Q04DX003 (ip), vehicle: water) was 103 % of control.

For `CCOC(=O)N1C=CC2(C=C1)CCCCC2`, the T/C (dose: 25.0 mg/kg/injection, schedule: Q04DX003 (ip), vehicle: Klucel (hydroxypropylcellulose) (HPC)) was 101 % of control and the T/C (dose: 50.0 mg/kg/injection, schedule: Q04DX003 (ip), vehicle: Klucel (hydroxypropylcellulose) (HPC)) was 106 % of control.

For `CC1=N/C(=C\C=C\c2ccccc2)C(=O)O1`, the T/C [13] was 104 % of control, the T/C [14] was 101 % of control and the T/C (dose: 200.0 mg/kg/injection, schedule: Q01DX005 (ip), vehicle: saline) was 103 % of control.

With `CCC1=C[C@H]2CN(CCc3c([nH]c4ccccc34)[C@@](C(=O)OC)(c3cc4c(cc3OC)N(C)[C@H]3[C@@](O)(C(=O)NN)[C@H](O)[C@]5(CC)C=CCN6CC[C@]43[C@@H]65)C2)C1` the T/C (dose: 0.5 mg/kg/injection, schedule: Q01DX001 (ip), vehicle: water) was 174 % of control, the T/C (dose: 1.0 mg/kg/injection, schedule: Q01DX001 (ip), vehicle: water) was 164 % of control and 175 % of control and the T/C (dose: 2.0 mg/kg/injection, schedule: Q01DX001 (ip), vehicle: water) was 183 % of control and 193 % of control.

For `COc1ccc(N2C(=O)CCC2=O)cc1`, the T/C (dose: 100.0 mg/kg/injection, schedule: Q01DX001 (ip), vehicle: saline with Tween-80) was 109 % of control, the T/C (dose: 200.0 mg/kg/injection, schedule: Q01DX001 (ip), vehicle: saline with Tween-80) was 100 % of control and the T/C (dose: 400.0 mg/kg/injection, schedule: Q01DX001 (ip), vehicle: saline with Tween-80) was 95 % of control.

With `NC12CCC(c3ccccc31)c1ccccc12` the T/C (dose: 60.0 mg/kg/injection, schedule: Q01DX005 (ip), vehicle: Klucel (hydroxypropylcellulose) (HPC)) was 95 % of control, the T/C (dose: 120.0 mg/kg/injection, schedule: Q01DX005 (ip), vehicle: Klucel (hydroxypropylcellulose) (HPC)) was 102 % of control and the T/C (dose: 240.0 mg/kg/injection, schedule: Q01DX005 (ip), vehicle: Klucel (hydroxypropylcellulose) (HPC)) was 93 % of control.

With `CC(C)NCC(N)C(=O)O` (stereo not drawn) the T/C (dose: 55.0 mg/kg/injection, schedule: Q01DX001 (ip), vehicle: saline) was 102 % of control, the T/C (dose: 110.0 mg/kg/injection, schedule: Q01DX001 (ip), vehicle: saline) was 102 % of control and the T/C (dose: 220.0 mg/kg/injection, schedule: Q01DX001 (ip), vehicle: saline) was 99 % of control.

With `Cc1c2ccn3c(=O)c4ccccc4cc3c2c(C)c2c1[nH]c1ccccc12` the T/C (dose: 0.78 mg/kg/injection, schedule: Q04DX003 (ip), vehicle: distilled water + Tween-80) was 89 % of control, the T/C (dose: 1.56 mg/kg/injection, schedule: Q04DX003 (ip), vehicle: distilled water + Tween-80) was 87 % of control and the T/C (dose: 200.0 mg/kg/injection, schedule: Q04DX003 (ip), vehicle: distilled water + Tween-80) was 95 % of control.
